Values quoted from earlier work as cited in patent US20060287342A1, “Triazolopyrimidine heterocycles as cannabinoid receptor modulators” (priority 2005, published 2006).

Columns and labels:
[1] = chronic administration for two weeks
human subjects = details: 16 week trial period

| SMILES | body weight [1] | body weight (human subjects) |
| --- | --- | --- |
| Cc1c(C(=O)NN2CCCCC2)nn(-c2ccc(Cl)cc2Cl)c1-c1ccc(I)cc1 [AM-251] | substantial body weight reduction |  |
| Cc1c(C(=O)NN2CCCCC2)nn(-c2ccc(Cl)cc2Cl)c1-c1ccc(Cl)cc1 [SR-141716] |  | dose-dependently reduced body weight |
